Test results taken from publication PMC8040520 (ACS chemical biology, 2020).

Tested on: BolI
Test: steady-state kinetics, CoA production
Format: biochemical, Bradyrhizobium oligotrophicum
Conditions: co-substrate SAM presumed; details in supplement

- Km: 3 µM
SMILES: CC(C)(COP(=O)(O)OP(=O)(O)OC[C@H]1O[C@@H](n2cnc3c(N)ncnc32)[C@H](O)[C@@H]1OP(=O)(O)O)[C@@H](O)C(=O)NCCC(=O)NCCSC(=O)/C=C/c1ccccc1 [cinnamoyl-CoA]
